This note sets out measurements from patent US7163941B2, “Pyrido[2,3-d]pyrimidin-7-carboxylic acid derivatives, their manufacture and use as pharmaceutical agents” (Hoffmann-La Roche Inc., priority 2003, dated 2007).

Experiment [1] addresses T1, Src (p60^c-src, partially purified) (Homo sapiens, UniProt P12931).
T1 construct: purchased Upstate (UBI)
The experiment in a line: SRC-Inhibitor-Assay (time-resolved fluorescence), Src enzyme. The format is biochemical. The note with it: ATP 5 μM, peptide 10 μM, enzyme 2.5 U/ml, pre-incubation 15 min at 15° C. The method, then:
(§1) The activity of the compounds according to this invention as inhibitors for the src-family tyrosine kinases was shown by using the following assay.
(§2) SRC-Inhibitor-Assay Parameters:
(§3) • Reaction mixture: • ATP 5 μM • Peptide (R+Ja133-Ro): 10 μM • Ja133-Ro 196 nM • Ro 9.8 μM • PT66 230 ng/ml • Assay buffer: 4 mM MgCl2 • 2 mM TCEP • 50 mM HEPES • 0,1% Tween 20 • pH 7.3 • Enzyme: 2.5 U/ml • Inhibitor: max. 25 μM • min. 0.42 nM Material: • Eu-labelled phosphotyrosine antibody: -for Lck Cisbio Mab PT66-K, • for Src EG&G Wallac PT66 Eu-W1024 (all commercially available). • Peptides: Ro: NH2-A-E-E-E-I-Y-G-E-F-E-A-K-K-K-K-CONH2 (SEQ ID NO: 1), and • Ja133-Ro: Ja133-G-Aminocaprylic acid-A-E-E-E-I-Y-G-E-F-E-A-K-K-K-K-CONH2 (SEQ ID NO: 2), wherein Ja133 is LightCycler-Red 640-N-hydroxy succinimide ester; • whereby both peptides were synthesized by an optimized solid phase peptide synthesis protocol (Merrifield, Fed. Proc. Fed. Amer. Soc. Exp. Biol. 21 (1962) 412) on a Zinsser SMP350 peptide synthesizer. Shortly, the peptide was assembled on 160 mg (22.8 μmol scale) of a Rink-Linker modified polystyrene solid phase by repeatedly conjugating an twenty fold excess of aminoacids each protected by temporary piperidine labile Fmoc- and permanent acid labile tert-Bu-, BOC- and Otert-Bu-groups depending on the side chain function. The substrate sequence AEEEIYGEFEAKKKK (SEQ ID NO: 1) was N-terminal additionally mounted with the spacer amino acids Aminocaprylic acid and Glycin. After cleavage of the N-terminal temporary protecting group the still attached and protected peptide was labeled with a 1.5 fold amount of LightCycler-Red 640-N-hydroxy succinimide ester (purchased by Roche Diagnostics GmbH) and triethylamine. After 3 hrs. the resin was washed with Dimethylformamide and Isopropanol until the eluates of the blue resin got colo-rless. […] The substrate was finally isolated by a preparative reverse phase HPLC purification. The purification yielded 12.2 mg RP-HPLC single peak pure blue material (lyophilisate). The identity was proven by MALDI mass spectroscopy [2720.0]. • Enzymes: Upstate Lck (p56^lck, active), Upstate Src (p60^c-src, partially purified) were purchased from UBI. • Time-resolved Fluorescence Assay: Reader: Perkin Elmer, Wallac Viktor 1420-040 multilabel counter; Liquid handling system: Beckman Coulter, Biomek 2000. ATP, Tween 20, HEPES were purchased from Roche Molecular Biochemicals, MgCl2 and MnCl2 were purchased from Merck Eurolab, TCEP was purchased from Pierce, 384 Well low volume fluorescence plates was purchased from Falcon. Assay Description:
(§4) At first the enzyme is pre-incubated for 15 min. at 15° C. in aqueous solution with corresponding amounts of inhibitors according to this invention. Then the phosphorylation reaction is started by adding a reaction mixture, containing ATP, Peptide and PT66, and subsequent shaking. The proceeding of this reaction is immediately monitored using time resolved fluorescence spectroscopy in a suitable well plate reader.
(§5) The IC50-values can be obtained from the reaction rates by using a non-linear curve fit (Excelfit).

Another experiment concerns the target T2, Lck (p56^lck, active) (Homo sapiens, UniProt P06239).
T2 construct: purchased Upstate (UBI)
The experiment can be described thus: SRC-Inhibitor-Assay (time-resolved fluorescence), Lck enzyme. The format is biochemical. The note with it: ATP 5 μM, peptide 10 μM, enzyme 2.5 U/ml, pre-incubation 15 min at 15° C. As for the experimental part:
as §1, §2, §3, §4, §5

T1 sequence (P12931 whole entry, species assumed): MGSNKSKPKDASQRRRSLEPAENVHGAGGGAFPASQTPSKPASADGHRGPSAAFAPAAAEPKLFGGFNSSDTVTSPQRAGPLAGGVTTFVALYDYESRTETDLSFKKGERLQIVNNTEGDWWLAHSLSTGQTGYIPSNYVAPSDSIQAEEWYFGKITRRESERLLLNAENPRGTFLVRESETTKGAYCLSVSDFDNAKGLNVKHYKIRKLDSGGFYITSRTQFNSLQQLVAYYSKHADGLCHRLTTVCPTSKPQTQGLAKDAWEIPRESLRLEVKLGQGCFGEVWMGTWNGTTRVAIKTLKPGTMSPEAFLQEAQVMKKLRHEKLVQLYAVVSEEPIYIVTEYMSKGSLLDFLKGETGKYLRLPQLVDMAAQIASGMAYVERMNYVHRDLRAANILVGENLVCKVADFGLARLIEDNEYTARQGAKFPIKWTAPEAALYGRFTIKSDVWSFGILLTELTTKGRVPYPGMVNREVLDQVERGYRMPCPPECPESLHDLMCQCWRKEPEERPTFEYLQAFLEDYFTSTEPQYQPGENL
T2 sequence (P06239 whole entry, species assumed): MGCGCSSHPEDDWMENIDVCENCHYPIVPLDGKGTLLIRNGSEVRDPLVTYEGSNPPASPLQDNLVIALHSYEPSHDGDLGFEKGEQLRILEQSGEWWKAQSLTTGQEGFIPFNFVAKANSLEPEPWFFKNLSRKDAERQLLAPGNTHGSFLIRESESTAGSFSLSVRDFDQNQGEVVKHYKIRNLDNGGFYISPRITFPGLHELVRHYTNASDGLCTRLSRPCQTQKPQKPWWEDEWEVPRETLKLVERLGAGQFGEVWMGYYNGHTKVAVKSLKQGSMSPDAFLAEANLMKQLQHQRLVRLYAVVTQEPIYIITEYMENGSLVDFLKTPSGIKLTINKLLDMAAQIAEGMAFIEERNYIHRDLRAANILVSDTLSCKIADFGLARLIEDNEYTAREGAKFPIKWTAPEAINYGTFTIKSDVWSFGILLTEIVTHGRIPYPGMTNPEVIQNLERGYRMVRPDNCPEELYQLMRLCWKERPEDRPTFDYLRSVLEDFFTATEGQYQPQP

In general, IC50 refers to the concentration needed to halve the response being measured. Low readings indicate greater potency, high ones weaker potency. For `CN1CCCC1CCNC(=O)c1nc2nc(Nc3ccc(F)cc3)ncc2cc1-c1ccccc1Br` (centres unmarked) [Example 3-33, 6-(2-Bromo-phenyl)-2-(4-fluoro-phenylamino)-pyrido[2,3-d]pyrimidine-7-carboxylic acid [2-(1-methyl-pyrrolidin-2-yl)-ethyl]-amide], the IC50 in experiment [1] was 44.7 nM; at Lck (p56^lck, active), 96.9 nM.

With `O=C(N[C@@H]1CCCNC1)c1nc2nc(Nc3ccc(F)cc3)ncc2cc1-c1ccccc1Br` [Example 3-34, (R)-6-(2-Bromo-phenyl)-2-(4-fluoro-phenylamino)-pyrido[2,3-d]pyrimidine-7-carboxylic acid piperidin-3-ylamide], the IC50 in experiment [1] was found to be 97.9 nM; on Lck (p56^lck, active), 127 nM.

Consider `O=C(NC1CN2CCC1CC2)c1nc2nc(Nc3ccc(F)cc3)ncc2cc1-c1ccccc1Br` (centres unmarked) [Example 3-35, 6-(2-Bromo-phenyl)-2-(4-fluoro-phenylamino)-pyrido[2,3-d]pyrimidine-7-carboxylic acid (1-aza-bicyclo[2.2.2]oct-3-yl)-amide], for which the IC50 in experiment [1] is 73.1 nM; against Lck (p56^lck, active) it was 251 nM.

In the case of `O=C(NCCNc1ccccn1)c1nc2nc(Nc3ccc(F)cc3)ncc2cc1-c1ccccc1Br` [Example 3-36, 6-(2-Bromo-phenyl)-2-(4-fluoro-phenylamino)-pyrido[2,3-d]pyrimidine-7-carboxylic acid [2-(pyridin-2-ylamino)-ethyl]-amide], the IC50 in experiment [1] came to 165 nM; against Lck (p56^lck, active), 256 nM.

As for `NS(=O)(=O)CCNC(=O)c1nc2nc(Nc3ccc(F)cc3)ncc2cc1-c1ccccc1Br` [Example 3-37, 6-(2-Bromo-phenyl)-2-(4-fluoro-phenylamino)-pyrido[2,3-d]pyrimidine-7-carboxylic acid (2-sulfamoyl-ethyl)-amide], the IC50 amounted to 21 nM in experiment [1] and 189 nM at Lck (p56^lck, active).

Take `O=C(NCCCO)c1nc2nc(Nc3ccc(F)cc3)ncc2cc1-c1ccccc1Br` [Example 3-38, 6-(2-Bromo-phenyl)-2-(4-fluoro-phenylamino)-pyrido[2,3-d]pyrimidine-7-carboxylic acid (3-hydroxy-propyl)-amide]: the IC50 is 91.8 nM in experiment [1] and 456 nM on Lck (p56^lck, active).

For the compound `O=C(NCCc1cnc[nH]1)c1nc2nc(Nc3ccc(F)cc3)ncc2cc1-c1ccccc1Br` [Example 3-39, 6-(2-Bromo-phenyl)-2-(4-fluoro-phenylamino)-pyrido[2,3-d]pyrimidine-7-carboxylic acid [2-(3H-imidazol-4-yl)-ethyl]-amide], the IC50 is 24.3 nM in experiment [1] and 114 nM against Lck (p56^lck, active).

Take `C[S+]([O-])CCNC(=O)c1nc2nc(Nc3ccc(F)cc3)ncc2cc1-c1ccccc1Br` (centres unmarked) [Example 3-40, 6-(2-Bromo-phenyl)-2-(4-fluoro-phenylamino)-pyrido[2,3-d]pyrimidine-7-carboxylic acid (2-methanesulfinyl-ethyl)-amide]: the IC50 in experiment [1] was 149 nM; on Lck (p56^lck, active) it was 584 nM.

Consider `Cc1cc(CNC(=O)c2nc3nc(Nc4ccc(F)cc4)ncc3cc2-c2ccccc2Br)nn1C` [Example 3-41, 6-(2-Bromo-phenyl)-2-(4-fluoro-phenylamino)-pyrido[2,3-d]pyrimidine-7-carboxylic acid (1,5-dimethyl-1H-pyrazol-3-ylmethyl)-amide], for which the IC50 in experiment [1] was found to be 26 nM; against Lck (p56^lck, active), 126 nM.

As to `NC(=O)c1c[nH]nc1NC(=O)c1nc2nc(Nc3ccc(F)cc3)ncc2cc1-c1ccccc1Br` [Example 3-42, 6-(2-Bromo-phenyl)-2-(4-fluoro-phenylamino)-pyrido[2,3-d]pyrimidine-7-carboxylic acid (4-carbamoyl-1H-pyrazol-3-yl)-amide], the IC50 is 56.3 nM in experiment [1] and 694 nM against Lck (p56^lck, active).

Turning to `O=C(NCC[S+]([O-])CCO)c1nc2nc(Nc3ccc(F)cc3)ncc2cc1-c1ccccc1Br` (centres unmarked) [Example 3-43, 6-(2-Bromo-phenyl)-2-(4-fluoro-phenylamino)-pyrido[2,3-d]pyrimidine-7-carboxylic acid [2-(2-hydroxy-ethanesulfinyl)-ethyl]-amide], the IC50 in experiment [1] amounted to 129 nM; on Lck (p56^lck, active), 809 nM.

As for `CNCCNC(=O)c1nc2nc(Nc3ccc(N4CCOCC4)cc3)ncc2cc1-c1ccccc1Br` [Example 3-44, 6-(2-Bromo-phenyl)-2-(4-morpholin-4-yl-phenylamino)-pyrido[2,3-d]pyrimidine-7-carboxylic acid (2-methylamino-ethyl)-amide], the IC50 in experiment [1] was 1 nM; at Lck (p56^lck, active), 2.5 nM.

With `O=C(NCCO)c1nc2nc(Nc3ccc(F)cc3)ncc2cc1-c1ccccc1Br` [Example 3-45, 6-(2-Bromo-phenyl)-2-(4-fluoro-phenylamino)-pyrido[2,3-d]pyrimidine-7-carboxylic acid (2-hydroxy-ethyl)-amide], the IC50 in experiment [1] was 21.5 nM; against Lck (p56^lck, active), 155 nM.

For the compound `CN(C)CC(=O)NNC(=O)c1nc2nc(Nc3ccc(F)cc3)ncc2cc1-c1ccccc1Br` [Example 3-46, 6-(2-Bromo-phenyl)-2-(4-fluoro-phenylamino)-pyrido[2,3-d]pyrimidine-7-carboxylic acid N′-(2-dimethylamino-acetyl)-hydrazide], the IC50 in experiment [1] came to 16.8 nM; against Lck (p56^lck, active) it was 38.1 nM.

Take `O=C(N[C@H]1CCCNC1)c1nc2nc(Nc3ccc(F)cc3)ncc2cc1-c1ccccc1Br` [Example 3-47, (S)-6-(2-Bromo-phenyl)-2-(4-fluoro-phenylamino)-pyrido[2,3-d]pyrimidine-7-carboxylic acid piperidin-3-ylamide]: the IC50 in experiment [1] is 6.6 nM; at Lck (p56^lck, active), 27.5 nM.

Take `O=C(NC[C@H]1CCCN1)c1nc2nc(Nc3ccc(F)cc3)ncc2cc1-c1ccccc1Br` [Example 3-48, (R)-6-(2-Bromo-phenyl)-2-(4-fluoro-phenylamino)-pyrido[2,3-d]pyrimidine-7-carboxylic acid (pyrrolidin-2-ylmethyl)-amide]: the IC50 in experiment [1] came out at 2.1 nM; against Lck (p56^lck, active), 38.1 nM.

Take `O=C(Nc1cc[nH]n1)c1nc2nc(Nc3ccc(F)cc3)ncc2cc1-c1ccccc1Br` [Example 3-49, 6-(2-Bromo-phenyl)-2-(4-fluoro-phenylamino)-pyrido[2,3-d]pyrimidine-7-carboxylic acid (1H-pyrazol-3-yl)-amide]: the IC50 in experiment [1] was found to be 4.3 nM; on Lck (p56^lck, active), 7.3 nM.

As for `N#Cc1nc2nc(Nc3ccc(N4CCOCC4)cc3)ncc2cc1-c1ccccc1Br` [Example 4-1, 6-(2-Bromo-phenyl)-2-(4-morpholin-4-yl-phenylamino)-pyrido[2,3-d]pyrimidine-7-carbonitrile; compound with trifluoro-acetic acid], the IC50 in experiment [1] is 6.5 nM; at Lck (p56^lck, active), 20.1 nM.

As to `CCN(CC)CCOc1ccc(Nc2ncc3cc(-c4ccccc4Br)c(C#N)nc3n2)cc1` [Example 4-2, 6-(2-Bromo-phenyl)-2-[4-(2-diethylamino-ethoxy)-phenylamino]-pyrido[2,3-d]pyrimidine-7-carbonitrile], the IC50 in experiment [1] was 1.8 nM; on Lck (p56^lck, active), 5.1 nM.

On to `N#Cc1nc2nc(Nc3ccc(OCCO)cc3)ncc2cc1-c1ccccc1Br` [Example 4-3, 6-(2-Bromo-phenyl)-2-[4-(2-hydroxy-ethoxy)-phenylamino]-pyrido[2,3-d]pyrimidine-7-carbonitrile], for which the IC50 in experiment [1] came out at 4.5 nM; on Lck (p56^lck, active), 49.9 nM.

With `CCNCCOc1ccc(Nc2ncc3cc(-c4ccccc4Br)c(C#N)nc3n2)cc1` [Example 4-4, 6-(2-Bromo-phenyl)-2-[4-(2-ethylamino-ethoxy)-phenylamino]-pyrido[2,3-d]pyrimidine-7-carbonitrile], the IC50 was 1.1 nM in experiment [1] and 4.2 nM against Lck (p56^lck, active).

For `C[S+]([O-])c1cccc(Nc2ncc3cc(-c4ccccc4Br)c(C#N)nc3n2)c1` (centres unmarked) [Example 4-5, 6-(2-Bromo-phenyl)-2-(3-methanesulfinyl-phenylamino)-pyrido[2,3-d]pyrimidine-7-carbonitrile], the IC50 in experiment [1] came out at 3.5 nM; against Lck (p56^lck, active), 52.1 nM.
